Experimental data from publication PMC9694544, “Conteltinib (CT-707) in patients with advanced ALK-positive non-small cell lung cancer: a multicenter, open-label, first-in-human phase 1 study” (BMC Medicine, 2022).
“And” between values parts separate entries of the source, which are not always exact repeats. Identical values can stand only once.

Columns and labels:
[1] = test system: brain metastasis of ALK-positive NSCLC; experiment: Intracranial response in patients with measurable brain metastatic lesions; format: in vivo, human
ALK R1275Q = ALK R1275Q (Homo sapiens, UniProt Q9UM73, R1275Q); experiment: ALK enzymatic IC50, R1275Q; format: biochemical
Text: (§1) Supplement 12916_2022_2646_MOESM1_ESM.docx, table 1 | column: ALK Enzymatic IC50 (nM)

Pyk2 = test system: Pyk2; parameters: method as in PMID 27638856; conditions: less potent than the inhibition to ALK; cited from earlier work
ALK-positive NSCLC = experiment: Phase 1 efficacy assessment (RECIST 1.1, investigator-assessed);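 also: tumours imaged by CT or MRI at baseline, after cycle 1, then every 8 weeks to cycle 29 and every 12 weeks until progression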
ALK F1174L = ALK F1174L (Homo sapiens, UniProt Q9UM73, F1174L); experiment: ALK enzymatic IC50, F1174L; format: biochemical
Text: as §1

[2] = ALK TKI-naïve, 300 mg BID (n=6)
[3] = ALK TKI-naïve, 600 mg QD (n=12)
[4] = All patients, 300 mg BID (n=11)
[5] = Received crizotinib previously, 50 mg QD (n=1)
[6] = Received crizotinib previously, 200 mg QD (n=1)
[7] = Received crizotinib previously, 300 mg BID (n=5)
[8] = Received crizotinib previously, 300 mg QD (n=1)
[9] = Received crizotinib previously, 600 mg QD (n=6)
[10] = Received crizotinib previously, 800 mg QD (n=1)
[11] = waterfall plot, evaluable patients (n=60)

In the case of `COc1cc(N2CCC(N3CCN(C)CC3)CC2)ccc1Nc1nc2c(c(Nc3ccccc3S(=O)(=O)NC(C)C)n1)CCN2` [Conteltinib], the “Intracranial DCR (95% CI)” value ([1]; 300 mg BID (n=1)) is reported as 100.0% (2.5-100.0), the “Intracranial ORR (95% CI)” value ([1]; 300 mg BID (n=1)) is reported as 0.0% (0.0-97.5) and the “Intracranial DCR (95% CI)” value ([1]; 450 mg QD (n=2)) is reported as 100.0% (15.8-100.0). For the same molecule, the “Intracranial ORR (95% CI)” value ([1]; 450 mg QD (n=2)) was 50% (1.3-98.7), the “Intracranial DCR (95% CI)” value ([1]; 600 mg QD (n=3)) was 66.7% (9.4-99.2) and the “Intracranial ORR (95% CI)” value ([1]; 600 mg QD (n=3)) was 33.3% (0.8-90.6). For the same molecule, the IC50 (ALK R1275Q) was 1.2 nM, the Pyk2 inhibition (Pyk2) was “inhibits” and the CR rate (ALK-positive NSCLC; 39 ALK TKI-naïve patients) was 2.6%. For the same molecule, the PR rate (ALK-positive NSCLC; 39 ALK TKI-naïve patients) was 61.5%, the “number of patients with objective response” value (ALK-positive NSCLC; 39 ALK TKI-naïve patients) was 25 patients and the “patients with tumor regression” value (ALK-positive NSCLC; 50/60 patients) was 83.3%. For the same molecule, the “DCR (95% CI)” value (ALK-positive NSCLC; ALK TKI-naïve, 50 mg QD (n=1)) was 100.0% (2.5–100.0), the “ORR (95% CI)” value (ALK-positive NSCLC; ALK TKI-naïve, 50 mg QD (n=1)) was 100.0% (2.5–100.0) and the “DoR, Median (95% CI)” value (ALK-positive NSCLC; ALK TKI-naïve, 100 mg QD (n=6)) was 11.1 (5.61–15.0) months. The “PFS, Median (95% CI)” value (ALK-positive NSCLC; ALK TKI-naïve, 100 mg QD (n=6)) was 11.3 (2.75–15.9) months, the “DoR, Median (95% CI)” value (ALK-positive NSCLC; ALK TKI-naïve, 200 mg QD (n=2)) was 5.51 (NE–NE) months and the “ORR (95% CI)” value (ALK-positive NSCLC; ALK TKI-naïve, 200 mg QD (n=2)) was 50.0% (1.3–98.7). For the same molecule, the “PFS, Median (95% CI)” value (ALK-positive NSCLC; ALK TKI-naïve, 200 mg QD (n=2)) was 5.89 (3.25–8.54) months, the “DoR, Median (95% CI)” value (ALK-positive NSCLC; [2]) was 10.6 (1.80–10.6) months and the “PFS, Median (95% CI)” value (ALK-positive NSCLC; [2]) was 17.8 (3.05–19.6) months. For the same molecule, the “DCR (95% CI)” value (ALK-positive NSCLC; ALK TKI-naïve, 300 mg QD (n=2)) was 100.0% (15.8–100.0), the “DoR, Median (95% CI)” value (ALK-positive NSCLC; ALK TKI-naïve, 300 mg QD (n=2)) was 17.4 (9.06–25.8) months and the “ORR (95% CI)” value (ALK-positive NSCLC; ALK TKI-naïve, 300 mg QD (n=2)) was 100.0% (15.8–100.0). For the same molecule, the “PFS, Median (95% CI)” value (ALK-positive NSCLC; ALK TKI-naïve, 300 mg QD (n=2)) was 19.5 (10.2–28.8) months, the “DoR, Median (95% CI)” value (ALK-positive NSCLC; ALK TKI-naïve, 450 mg QD (n=8)) was “NE (3.74–NE)” and the “PFS, Median (95% CI)” value (ALK-positive NSCLC; ALK TKI-naïve, 450 mg QD (n=8)) was “NE (4.63–NE)”. The “DoR, Median (95% CI)” value (ALK-positive NSCLC; [3]) was 16.5 (1.80–32.8) months, the “PFS, Median (95% CI)” value (ALK-positive NSCLC; [3]) was 19.3 (1.05–32.4) months and the “DCR (95% CI)” value (ALK-positive NSCLC; ALK TKI-naïve, 800 mg QD (n=2)) was 100.0% (15.8–100.0). The “DoR, Median (95% CI)” value (ALK-positive NSCLC; ALK TKI-naïve, 800 mg QD (n=2)) was 28.0 (NE–NE) months, the “ORR (95% CI)” value (ALK-positive NSCLC; ALK TKI-naïve, 800 mg QD (n=2)) was 50.0% (1.3–98.7) and the “PFS, Median (95% CI)” value (ALK-positive NSCLC; ALK TKI-naïve, 800 mg QD (n=2)) was 19.8 (10.3–29.2) months. For the same molecule, the “DoR, Median (95% CI)” value (ALK-positive NSCLC; ALK TKI-naïve, Total (n=39)) was 15.0 (9.06–25.8) months, the “PFS, Median (95% CI)” value (ALK-positive NSCLC; ALK TKI-naïve, Total (n=39)) was 15.9 (9.26–23.3) months and the “DCR (95% CI)” value (ALK-positive NSCLC; All patients, 50 mg QD (n=2)) was 50.0% (1.3–98.7). For the same molecule, the “ORR (95% CI)” value (ALK-positive NSCLC; All patients, 50 mg QD (n=2)) was 50.0% (1.3–98.7), the “PFS, Median (95% CI)” value (ALK-positive NSCLC; All patients, 50 mg QD (n=2)) was “NE (1.21–NE)” and the “DoR, Median (95% CI)” value (ALK-positive NSCLC; All patients, 100 mg QD (n=7)) was 11.1 (5.61–15.0) months. The “PFS, Median (95% CI)” value (ALK-positive NSCLC; All patients, 100 mg QD (n=7)) was 8.57 (0.95–15.9) months, the “DCR (95% CI)” value (ALK-positive NSCLC; All patients, 200 mg QD (n=3)) was 33.3% (0.8–90.6) and the “DoR, Median (95% CI)” value (ALK-positive NSCLC; All patients, 200 mg QD (n=3)) was 5.51 (NE–NE) months. The “ORR (95% CI)” value (ALK-positive NSCLC; All patients, 200 mg QD (n=3)) was 33.3% (0.8–90.6), the “PFS, Median (95% CI)” value (ALK-positive NSCLC; All patients, 200 mg QD (n=3)) was 3.25 (1.34–8.54) months and the “DoR, Median (95% CI)” value (ALK-positive NSCLC; [4]) was 5.58 (1.80–10.6) months. For the same molecule, the “PFS, Median (95% CI)” value (ALK-positive NSCLC; [4]) was 7.68 (3.05–17.8) months, the “DCR (95% CI)” value (ALK-positive NSCLC; All patients, 300 mg QD (n=3)) was 100.0% (29.2–100.0) and the “DoR, Median (95% CI)” value (ALK-positive NSCLC; All patients, 300 mg QD (n=3)) was 17.4 (9.06–25.8) months. For the same molecule, the “ORR (95% CI)” value (ALK-positive NSCLC; All patients, 300 mg QD (n=3)) was 66.7% (9.4–99.2), the “PFS, Median (95% CI)” value (ALK-positive NSCLC; All patients, 300 mg QD (n=3)) was 10.2 (4.92–28.8) months and the “DoR, Median (95% CI)” value (ALK-positive NSCLC; All patients, 450 mg QD (n=13)) was “NE (3.74–NE)”. For the same molecule, the “PFS, Median (95% CI)” value (ALK-positive NSCLC; All patients, 450 mg QD (n=13)) was 26.9 (4.63–NE) months, the “DoR, Median (95% CI)” value (ALK-positive NSCLC; All patients, 600 mg QD (n=18)) was 15.6 (1.80–22.2) months and the “PFS, Median (95% CI)” value (ALK-positive NSCLC; All patients, 600 mg QD (n=18)) was 13.2 (4.69–23.0) months. The “DCR (95% CI)” value (ALK-positive NSCLC; All patients, 800 mg QD (n=3)) was 100.0% (29.2–100.0), the “DoR, Median (95% CI)” value (ALK-positive NSCLC; All patients, 800 mg QD (n=3)) was 17.3 (6.60–28.0) months and the “ORR (95% CI)” value (ALK-positive NSCLC; All patients, 800 mg QD (n=3)) was 66.7% (9.4–99.2). For the same molecule, the “PFS, Median (95% CI)” value (ALK-positive NSCLC; All patients, 800 mg QD (n=3)) was 10.3 (7.72–29.2) months, the “DoR, Median (95% CI)” value (ALK-positive NSCLC; All patients, Total (n=60)) was 13.3 (6.60–22.2) months and the “PFS, Median (95% CI)” value (ALK-positive NSCLC; All patients, Total (n=60)) was 9.26 (6.73–15.7) months. The “patients achieving CR” value (ALK-positive NSCLC; FAS, 60 patients) was 1.7%, the “patients achieving PR” value (ALK-positive NSCLC; FAS, 60 patients) was 51.7% and the “patients attaining SD” value (ALK-positive NSCLC; FAS, 60 patients) was 26.7%. The “patients experiencing PD” value (ALK-positive NSCLC; FAS, 60 patients) was 16.7%, the “DCR (95% CI)” value (ALK-positive NSCLC; [5]) was 0.0% (0.0–97.5) and the “ORR (95% CI)” value (ALK-positive NSCLC; [5]) was 0.0% (0.0–97.5). For the same molecule, the “PFS, Median (95% CI)” value (ALK-positive NSCLC; [5]) was 1.21 (NE–NE) months, the “PFS, Median (95% CI)” value (ALK-positive NSCLC; Received crizotinib previously, 100 mg QD (n=1)) was 0.95 months and 0.95 (NE–NE) months and the “DCR (95% CI)” value (ALK-positive NSCLC; [6]) was 0.0% (0.0–97.5). The “ORR (95% CI)” value (ALK-positive NSCLC; [6]) was 0.0% (0.0–97.5), the “PFS, Median (95% CI)” value (ALK-positive NSCLC; [6]) was 1.34 (NE–NE) months and the “DoR, Median (95% CI)” value (ALK-positive NSCLC; [7]) was 5.58 (4.63–7.39) months. The “PFS, Median (95% CI)” value (ALK-positive NSCLC; [7]) was 7.09 (4.73–8.54) months, the “DCR (95% CI)” value (ALK-positive NSCLC; [8]) was 100.0% (54.1–100.0) and the “ORR (95% CI)” value (ALK-positive NSCLC; [8]) was 0.0% (0.0–97.5). For the same molecule, the “PFS, Median (95% CI)” value (ALK-positive NSCLC; [8]) was 4.92 (NE–NE) months, the “PFS, Median (95% CI)” value (ALK-positive NSCLC; Received crizotinib previously, 450 mg QD (n=5)) was 8.34 (3.02–26.9) months and the “DoR, Median (95% CI)” value (ALK-positive NSCLC; [9]) was 13.3 (3.77–16.5) months. The “PFS, Median (95% CI)” value (ALK-positive NSCLC; [9]) was 9.37 (4.69–17.7) months, the “DCR (95% CI)” value (ALK-positive NSCLC; [10]) was 100.0% (2.5–100.0) and the “DoR, Median (95% CI)” value (ALK-positive NSCLC; [10]) was 6.60 (NE–NE) months. The “ORR (95% CI)” value (ALK-positive NSCLC; [10]) was 100.0% (2.5–100.0), the “PFS, Median (95% CI)” value (ALK-positive NSCLC; [10]) was 7.72 (NE–NE) months and the “tumor size changes relative to baseline” value (ALK-positive NSCLC; across all patients (n=60)) was −100 to 74%. For the same molecule, the “number of patients with CR” value (ALK-positive NSCLC; [11]) was “One”, the “number of patients with PD” value (ALK-positive NSCLC; [11]) was 10 patients and the “number of patients with PR” value (ALK-positive NSCLC; [11]) was 31 patients. For the same molecule, the IC50 (ALK F1174L) was 4.3 nM.
